Molecules are shown by their SMILES.

Common to all, as to format: ADME
Settings in all cases: 0.5 h

Data set [1] concerns the target T1, Cytochrome P450 2C9 (Homo sapiens, UniProt P11712). Put plainly: Drug metabolism in supersomes expressing human recombinant CYP2C9 assessed as enzyme-mediated clozapine-N-oxide metabolite formation at 10 uM after 30 mins measured per nmol of P450 by HPLC analysis.
The next data set addresses Cytochrome P450 2C19 (Homo sapiens, UniProt P33261). The data set can be described thus: Drug metabolism in supersomes expressing human recombinant CYP2C19 assessed as enzyme-mediated clozapine-N-oxide metabolite formation at 100 uM after 30 mins measured per nmol of P450 by HPLC analysis.
Data set [2] has as its target T2, Cytochrome P450 2D6 (Homo sapiens, UniProt P10635). The data set can be described thus: Drug metabolism in supersomes expressing human recombinant CYP2D6 assessed as enzyme-mediated N-desmethylclozapine metabolite formation at 100 uM after 30 mins measured per nmol of P450 by HPLC analysis.
Another data set deals with T3, Cytochrome P450 2C8 (Homo sapiens, UniProt P10632).
T3 sequence (P10632 whole entry): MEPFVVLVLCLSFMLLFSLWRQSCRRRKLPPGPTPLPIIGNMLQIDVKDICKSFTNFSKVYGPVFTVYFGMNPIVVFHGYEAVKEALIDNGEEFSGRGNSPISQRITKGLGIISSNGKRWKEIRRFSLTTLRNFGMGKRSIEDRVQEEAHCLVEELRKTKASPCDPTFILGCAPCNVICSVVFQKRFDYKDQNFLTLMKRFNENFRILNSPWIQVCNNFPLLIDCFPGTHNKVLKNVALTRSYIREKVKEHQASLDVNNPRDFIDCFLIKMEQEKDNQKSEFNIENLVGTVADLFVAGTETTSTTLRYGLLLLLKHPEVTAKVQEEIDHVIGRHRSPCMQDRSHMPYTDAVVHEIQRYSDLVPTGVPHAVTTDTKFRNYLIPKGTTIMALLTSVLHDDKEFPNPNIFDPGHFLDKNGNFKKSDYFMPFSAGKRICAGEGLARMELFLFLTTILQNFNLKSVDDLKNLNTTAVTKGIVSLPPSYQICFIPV
The data set can be described thus: Drug metabolism in supersomes expressing human recombinant CYP2C8 assessed as enzyme-mediated cyanide adduct formation at 100 uM after 30 mins measured per nmol of P450 by HPLC analysis in presence of KCN.

The target in data set [3] is T2, Cytochrome P450 2D6. The data set can be described thus: Drug metabolism in supersomes expressing human recombinant CYP2D6 assessed as enzyme-mediated N-desmethylclozapine metabolite formation at 10 uM after 30 mins measured per nmol of P450 by HPLC analysis.
The target of data set [4] is T4, Cytochrome P450 1A2 (Homo sapiens, UniProt P05177).
T4 sequence (P05177 whole entry): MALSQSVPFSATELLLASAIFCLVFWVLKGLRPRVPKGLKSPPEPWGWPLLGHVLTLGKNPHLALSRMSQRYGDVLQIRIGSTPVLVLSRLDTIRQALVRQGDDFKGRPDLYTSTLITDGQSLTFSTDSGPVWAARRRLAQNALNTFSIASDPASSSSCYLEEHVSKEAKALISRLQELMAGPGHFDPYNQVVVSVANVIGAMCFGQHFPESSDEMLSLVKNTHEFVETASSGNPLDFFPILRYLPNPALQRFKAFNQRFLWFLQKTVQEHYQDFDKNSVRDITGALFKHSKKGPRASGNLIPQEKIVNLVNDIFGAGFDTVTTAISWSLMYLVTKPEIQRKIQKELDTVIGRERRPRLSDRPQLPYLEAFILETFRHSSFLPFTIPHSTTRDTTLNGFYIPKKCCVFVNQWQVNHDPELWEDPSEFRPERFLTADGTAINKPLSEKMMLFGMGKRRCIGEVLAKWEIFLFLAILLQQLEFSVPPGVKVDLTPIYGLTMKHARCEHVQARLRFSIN
Put plainly: Drug metabolism in supersomes expressing human recombinant CYP1A2 assessed as enzyme-mediated clozapine-N-oxide metabolite formation at 10 uM after 30 mins measured per nmol of P450 by HPLC analysis.

The target in data set [5] is T2, Cytochrome P450 2D6. Put plainly: Drug metabolism in supersomes expressing human recombinant CYP2D6 assessed as enzyme-mediated clozapine-N-oxide metabolite formation at 10 uM after 30 mins measured per nmol of P450 by HPLC analysis.
Data set [6] concerns the target T4, Cytochrome P450 1A2. Put plainly: Drug metabolism in supersomes expressing human recombinant CYP1A2 assessed as enzyme-mediated cyanide adduct formation at 100 uM after 30 mins measured per nmol of P450 by HPLC analysis in presence of KCN.
For another data set, the target named is T5, Cytochrome P450 1B1 (Homo sapiens, UniProt Q16678).
T5 sequence (Q16678 whole entry): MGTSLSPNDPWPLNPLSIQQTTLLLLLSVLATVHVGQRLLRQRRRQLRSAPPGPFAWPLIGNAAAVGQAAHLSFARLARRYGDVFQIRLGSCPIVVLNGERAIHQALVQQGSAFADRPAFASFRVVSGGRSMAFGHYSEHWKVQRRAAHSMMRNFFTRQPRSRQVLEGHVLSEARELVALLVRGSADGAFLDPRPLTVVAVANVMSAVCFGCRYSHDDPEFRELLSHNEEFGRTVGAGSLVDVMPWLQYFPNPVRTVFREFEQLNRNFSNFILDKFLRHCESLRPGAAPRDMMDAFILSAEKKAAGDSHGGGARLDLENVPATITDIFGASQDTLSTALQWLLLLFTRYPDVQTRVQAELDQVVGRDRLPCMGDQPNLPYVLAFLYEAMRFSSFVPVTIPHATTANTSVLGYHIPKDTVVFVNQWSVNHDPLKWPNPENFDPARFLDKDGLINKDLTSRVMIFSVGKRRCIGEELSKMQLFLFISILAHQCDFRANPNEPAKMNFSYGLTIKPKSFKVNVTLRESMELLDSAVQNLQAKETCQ
The data set can be described thus: Drug metabolism in supersomes expressing human recombinant CYP1B1 assessed as enzyme-mediated cyanide adduct formation at 100 uM after 30 mins measured per nmol of P450 by HPLC analysis in presence of KCN.

The target in data set [7] is T1, Cytochrome P450 2C9. The data set can be described thus: Drug metabolism in supersomes expressing human recombinant CYP2C9 assessed as enzyme-mediated N-desmethylclozapine metabolite formation at 100 uM after 30 mins measured per nmol of P450 by HPLC analysis.

T2 sequence (P10635 whole entry): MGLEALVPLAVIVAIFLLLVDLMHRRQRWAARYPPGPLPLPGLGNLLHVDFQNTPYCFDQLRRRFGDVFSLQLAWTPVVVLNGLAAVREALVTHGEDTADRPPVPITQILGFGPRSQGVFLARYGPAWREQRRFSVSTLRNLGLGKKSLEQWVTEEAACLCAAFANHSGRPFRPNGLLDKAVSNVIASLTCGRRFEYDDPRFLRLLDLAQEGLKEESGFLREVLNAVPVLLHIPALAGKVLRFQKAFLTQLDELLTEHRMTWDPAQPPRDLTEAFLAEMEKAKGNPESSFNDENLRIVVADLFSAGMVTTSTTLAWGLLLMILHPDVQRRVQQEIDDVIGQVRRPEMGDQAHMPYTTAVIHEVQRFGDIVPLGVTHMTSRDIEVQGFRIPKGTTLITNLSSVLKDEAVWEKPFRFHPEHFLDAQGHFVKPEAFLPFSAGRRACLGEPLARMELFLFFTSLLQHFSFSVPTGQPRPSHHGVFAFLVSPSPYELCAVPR
T1 sequence (P11712 whole entry): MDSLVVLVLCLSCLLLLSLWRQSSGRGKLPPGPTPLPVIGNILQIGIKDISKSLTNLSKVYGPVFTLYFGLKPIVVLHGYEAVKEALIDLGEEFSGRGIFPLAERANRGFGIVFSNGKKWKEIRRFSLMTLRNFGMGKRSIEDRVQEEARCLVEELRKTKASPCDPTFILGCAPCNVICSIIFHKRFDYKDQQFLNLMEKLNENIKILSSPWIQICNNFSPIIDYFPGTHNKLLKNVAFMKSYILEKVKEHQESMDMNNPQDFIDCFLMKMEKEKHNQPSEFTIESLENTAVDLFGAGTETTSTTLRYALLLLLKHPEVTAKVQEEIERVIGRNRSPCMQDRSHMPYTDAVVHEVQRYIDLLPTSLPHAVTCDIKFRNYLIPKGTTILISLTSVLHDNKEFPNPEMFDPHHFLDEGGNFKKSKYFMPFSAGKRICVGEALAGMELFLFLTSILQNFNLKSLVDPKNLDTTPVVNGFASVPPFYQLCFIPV
Cytochrome P450 2C19, sequence (P33261 whole entry): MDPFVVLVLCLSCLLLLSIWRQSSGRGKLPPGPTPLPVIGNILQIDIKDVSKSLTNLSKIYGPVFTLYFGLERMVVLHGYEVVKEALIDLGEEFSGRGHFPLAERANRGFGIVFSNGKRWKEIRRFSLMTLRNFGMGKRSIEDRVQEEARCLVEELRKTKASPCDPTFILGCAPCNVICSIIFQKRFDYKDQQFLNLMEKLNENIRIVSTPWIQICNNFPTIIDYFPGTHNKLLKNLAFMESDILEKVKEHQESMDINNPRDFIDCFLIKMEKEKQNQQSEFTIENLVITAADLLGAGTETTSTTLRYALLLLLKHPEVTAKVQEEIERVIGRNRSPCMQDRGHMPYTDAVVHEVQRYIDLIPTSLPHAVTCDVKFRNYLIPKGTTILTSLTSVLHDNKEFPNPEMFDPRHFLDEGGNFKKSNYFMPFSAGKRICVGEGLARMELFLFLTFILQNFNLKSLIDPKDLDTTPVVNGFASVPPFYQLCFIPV

`CN1CCN(C2=Nc3cc(Cl)ccc3Nc3ccccc32)CC1` [CLOZAPINE]: the Drug metabolism is 0.065 nmol/min at Cytochrome P450 2C9 [1]; 0.58 nmol/min/nmol P450 at Cytochrome P450 2C19; 23.7 nmol/min on Cytochrome P450 2D6 [2]; 0.058 nmol/min at Cytochrome P450 2C8; 8.43 nmol/min/nmol P450 on Cytochrome P450 2D6 [3]; 0.55 nmol/min/nmol P450 at Cytochrome P450 1A2 [4]. Moreover, the Drug metabolism on Cytochrome P450 2D6 [5] was 0.51 nmol/min; at Cytochrome P450 1A2 [6] it was 0.2 nmol/min; at Cytochrome P450 1B1, 0.01 nmol/min; on Cytochrome P450 2C9 [7], 0.22 nmol/min.

The values are drawn from ChEMBL document CHEMBL3525934 (Drug Metab Dispos, 2013).
